Measurements taken from patent US12509454B2, “Thiadiazolyl derivatives” (IDEAYA Biosciences, Inc., priority 2019, dated 2025).

Biological target: Pol theta (1-899) (Homo sapiens (Human), UniProt O75417)
Experiment: Pol theta ATPase activity, NADH oxidation-coupled enzymatic assay
Type: biochemical
Details: Pol theta (1-899) 10 nM, ATP, dT50 ssDNA, absorbance 340 nm, 10-point dilution series; read-out: ATPase NADH coupling:Standard Screening:hPolQ IC50
Summary of the method: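 Pol theta (1-899), 10 nM, preincubated 15 min at RT with 10-point compound series in Tris pH 7.80/KCl/MgCl2 buffer, then given 100 μM ATP plus 300 nM dT50 ssDNA with PK/LDH-coupled NADH oxidation. A340 followed for 30 min; rate slopes fitted with a four-parameter model for IC50.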

Sequence of Pol theta (1-899) (O75417 1-899): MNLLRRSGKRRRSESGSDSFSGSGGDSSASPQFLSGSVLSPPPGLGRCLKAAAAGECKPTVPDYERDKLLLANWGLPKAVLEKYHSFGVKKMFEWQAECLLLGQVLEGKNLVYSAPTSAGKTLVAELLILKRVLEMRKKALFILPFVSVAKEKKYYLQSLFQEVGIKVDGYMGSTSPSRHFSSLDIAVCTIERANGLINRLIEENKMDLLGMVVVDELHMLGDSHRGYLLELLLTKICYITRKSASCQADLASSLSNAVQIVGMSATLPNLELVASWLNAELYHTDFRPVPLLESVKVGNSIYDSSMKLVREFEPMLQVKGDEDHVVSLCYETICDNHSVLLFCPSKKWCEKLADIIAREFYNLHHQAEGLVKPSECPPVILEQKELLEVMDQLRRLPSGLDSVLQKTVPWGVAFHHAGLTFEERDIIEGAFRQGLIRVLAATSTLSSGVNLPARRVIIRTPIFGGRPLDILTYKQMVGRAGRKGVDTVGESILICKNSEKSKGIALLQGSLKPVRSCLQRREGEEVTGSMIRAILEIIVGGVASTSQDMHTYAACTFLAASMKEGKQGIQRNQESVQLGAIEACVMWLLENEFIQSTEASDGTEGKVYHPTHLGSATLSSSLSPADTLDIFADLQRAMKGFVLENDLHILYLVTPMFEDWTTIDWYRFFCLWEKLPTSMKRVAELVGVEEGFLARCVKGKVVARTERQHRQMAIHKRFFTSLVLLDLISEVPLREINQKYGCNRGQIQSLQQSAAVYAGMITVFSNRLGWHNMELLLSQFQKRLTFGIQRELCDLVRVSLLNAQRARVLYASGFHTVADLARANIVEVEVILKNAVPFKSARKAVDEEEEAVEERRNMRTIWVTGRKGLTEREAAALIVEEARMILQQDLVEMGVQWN

| IC50 | SMILES |
| --- | --- |
| ≤ 200 nM | COc1ccccc1-c1cc(C)ncc1C(=O)Nc1nnc(OCc2ccc(C)cn2)s1 [Example 205, 4-(2-methoxyphenyl)-6-methyl-N-(5-((5-methylpyridin-2-yl)methoxy)-1,3,4-thiadiazol-2-yl)nicotinamide] |
| ≤ 200 nM | C[C@@H]1C(=O)NCCN1c1cnccc1C(=O)Nc1nnc(OCc2ccc(Cl)cn2)s1 (racemic) [Example 179, (S)—N-(5-((5-chloropyridin-2-yl)methoxy)-1,3,4-thiadiazol-2-yl)-3-(2-methyl-3-oxopiperazin-1-yl)isonicotinamide and (R)—N-(5-((5-chloropyridin-2-yl)methoxy)-1,3,4-thiadiazol-2-yl)-3-(2-methyl-3-oxopiperazin-1-yl)isonicotinamide] |
| ≤ 200 nM | COc1ccccc1-n1cncc1C(=O)Nc1nnc(OCc2ccc(Cl)cc2)s1 [Example 50, N-(5-((4-chlorobenzyl)oxy)-1,3,4-thiadiazol-2-yl)-1-(2-methoxyphenyl)-1H-imidazole-5-carboxamide] |
| ≤ 200 nM | O=C(Nc1nnc(OCc2ccc(Cl)cc2)s1)c1cc(C#CCO)ncc1-c1ccccc1OC(F)F [Example 147, N-[5-[(4-chlorophenyl)methoxy]-1,3,4-thiadiazol-2-yl]-5-[2-(difluoromethoxy)phenyl]-2-(3-hydroxyprop-1-yn-1-yl)pyridine-4-carboxamide] |
| ≤ 200 nM | COc1ccccc1-c1ccncc1C(=O)Nc1nnc(OCc2ccc(Cl)cc2)s1 [Example 77, N-[5-[(4-chlorophenyl)methoxy]-1,3,4-thiadiazol-2-yl]-4-(2-methoxyphenyl)pyridine-3-carboxamide] |
| ≤ 200 nM | N#Cc1ccc(C(=O)Nc2nnc(OCc3ccc(Cl)cc3)s2)c(N2CCNC(=O)C2)n1 [Example 76, N-(5-((4-chlorobenzyl)oxy)-1,3,4-thiadiazol-2-yl)-6-cyano-2-(3-oxopiperazin-1-yl)nicotinamide] |
| ≤ 200 nM | COc1cccc(F)c1-c1cnccc1C(=O)Nc1nnc(OCc2ccc(Cl)cc2)s1 [Example 124, N-(5-((4-chlorobenzyl)oxy)-1,3,4-thiadiazol-2-yl)-3-(2-fluoro-6-methoxyphenyl)isonicotinamide] |
| ≤ 200 nM | O=C(Nc1nnc(OCc2ccc(Cl)cc2)s1)c1ccncc1-c1ccccc1CCO [Example 171, N-(5-((4-chlorobenzyl)oxy)-1,3,4-thiadiazol-2-yl)-3-(2-(2-hydroxyethyl)phenyl)isonicotinamide] |
| 500 to 1000 nM | O=C(Nc1nnc(OCc2ccc(Cl)cc2)s1)c1cnc(-c2ncc[nH]2)cc1N1CCOCC1 [Example 98, N-(5-((4-chlorobenzyl)oxy)-1,3,4-thiadiazol-2-yl)-6-(1H-imidazol-2-yl)-4-morpholinonicotinamide] |
| ≤ 200 nM | COc1ccccc1-c1cc(C)ncc1C(=O)Nc1nnc(OCc2ccc(C3CC3)cn2)s1 [Example 214, N-(5-((5-cyclopropylpyridin-2-yl)methoxy)-1,3,4-thiadiazol-2-yl)-4-(2-methoxyphenyl)-6-methylnicotinamide] |
| ≤ 200 nM | Cc1cc(-c2c(C)n[nH]c2C)c(C(=O)Nc2nnc(OCc3ccc(Cl)cn3)s2)cn1 [Example 196, N-(5-((5-chloropyridin-2-yl)methoxy)-1,3,4-thiadiazol-2-yl)-4-(3,5-dimethyl-1H-pyrazol-4-yl)-6methylnicotinamide] |
| ≤ 200 nM | O=C(Nc1nnc(OCc2ccc(Cl)cc2)s1)c1ccncc1N1CCCn2nccc21 [Example 142, N-[5-[(4-chlorophenyl)methoxy]-1,3,4-thiadiazol-2-yl]-3-[5H,6H,7H-pyrazolo[1,5-a]pyrimidin-4-yl]pyridine-4-carboxamide] |
| ≤ 200 nM | COc1ccccc1-c1nc(C#N)ccc1C(=O)Nc1nnc(OCc2ccc(Cl)cc2)s1 [Example 71, N-(5-((4-chlorobenzyl)oxy)-1,3,4-thiadiazol-2-yl)-6-cyano-2-(2-methoxyphenyl)-nicotinamide] |
| 500 to 1000 nM | O=C(Nc1nnc(OCc2ccc(Cl)cc2)s1)c1ccc(Br)nc1N1CCOCC1 [Example 58, 6-bromo-N-(5-((4-chlorobenzyl)oxy)-1,3,4-thiadiazol-2-yl)-2-morpholinonicotinamide] |
| ≤ 200 nM | COc1ccccc1-c1cc(C(F)(F)F)ncc1C(=O)Nc1nnc(OCc2ccc(Cl)cc2)s1 [Example 156, N-[5-[(4-chlorophenyl)methoxy]-1,3,4-thiadiazol-2-yl]-4-(2-methoxyphenyl)-6-(trifluoromethyl)pyridine-3-carboxamide] |
| ≤ 200 nM | COc1ccccc1-c1cnccc1C(=O)Nc1nnc(OCc2ccc(Cl)cc2)s1 [Example 95, N-(5-((4-chlorobenzyl)oxy)-1,3,4-thiadiazol-2-yl)-3-(2-methoxyphenyl)isonicotinamide] |
| ≤ 200 nM | Cc1n[nH]c(C)c1-c1cnccc1C(=O)Nc1nnc(OCc2ccc(Cl)cc2)s1 [Example 140, N-[5-[(4-chlorophenyl)methoxy]-1,3,4-thiadiazol-2-yl]-3-(3,5-dimethyl-1H-pyrazol-4-yl)pyridine-4-carboxamide] |

| IC50 | SMILES |
| --- | --- |
| 1000 to 10000 nM | O=C(Nc1nnc(OCc2ccc(Cl)cc2)s1)c1cccnc1N1CCN(CCO)C(=O)C1 [Example 68, N-(5-((4-chlorobenzyl)oxy)-1,3,4-thiadiazol-2-yl)-2-(4-(2-hydroxyethyl)-3-oxopiperazin-1-yl)nicotinamide] |
| 500 to 1000 nM | CNC(=O)c1cc(N2CCOCC2)c(C(=O)Nc2nnc(OCc3ccc(Cl)cc3)s2)cn1 [Example 64, N^5-(5-((4-chlorobenzyl)oxy)-1,3,4-thiadiazol-2-yl)-N2-methyl-4-morpholinopyridine-2,5-dicarboxamide] |
| ≤ 200 nM | COc1ccccc1-n1nncc1C(=O)Nc1nnc(OCc2ccc(F)cc2)s1 [Example 82, N-(5-((4-fluorobenzyl)oxy)-1,3,4-thiadiazol-2-yl)-1-(2-methoxyphenyl)-1H-1,2,3-triazole-5-carboxamide] |
| ≤ 200 nM | COc1ccccc1-c1cnc(CC#N)cc1C(=O)Nc1nnc(OCc2ccc(Cl)cc2)s1 [Example 137, N-[5-[(4-chlorophenyl)methoxy]-1,3,4-thiadiazol-2-yl]-2-(cyanomethyl)-5-(2-methoxyphenyl)pyridine-4-carboxamide] |
| ≤ 200 nM | N#Cc1ccc(C(=O)Nc2nnc(OCc3ccc(Cl)cc3)s2)c(N2CCOCC2)n1 [Example 14, N-(5-((4-chlorobenzyl)oxy)-1,3,4-thiadiazol-2-yl)-6-cyano-2-morpholinonicotinamide] |
| 1000 to 10000 nM | COc1cc(COc2nnc(NC(=O)c3cccnc3N3CCOCC3)s2)ccc1Cl [Example 34, N-(5-((4-chloro-3-methoxybenzyl)oxy)-1,3,4-thiadiazol-2-yl)-2-morpholinonicotinamide] |
| ≤ 200 nM | COc1cnccc1-c1cc(C)ncc1C(=O)Nc1nnc(OCc2ccc(Cl)cn2)s1 [Example 194, N-(5-((5-chloropyridin-2-yl)methoxy)-1,3,4-thiadiazol-2-yl)-3′-methoxy-6-methyl-[4,4′-bipyridine]-3-carboxamide] |
| 200 to 500 nM | O=C(Nc1nnc(OCc2ccc(Cl)cc2)s1)c1cncnc1N1CCOCC1 [Example 13, N-(5-((4-chlorobenzyl)oxy)-1,3,4-thiadiazol-2-yl)-4-morpholinopyrimidine-5-carboxamide] |
| ≤ 200 nM | O=C(Nc1nnc(OCc2ccc(Cl)cc2)s1)c1ccncc1-c1cccc2nsnc12 [Example 103, 3-(benzo[c][1,2,5]thiadiazol-4-yl)-N-(5-((4-chlorobenzyl)oxy)-1,3,4-thiadiazol-2-yl)isonicotinamide] |
| ≤ 200 nM | N#Cc1ccc(C(=O)Nc2nnc(OCc3ccc(Cl)cc3)s2)c(N2CCOC3(CC3)C2)n1 [Example 44, N-(5-((4-chlorobenzyl)oxy)-1,3,4-thiadiazol-2-yl)-6-cyano-2-(4-oxa-7-azaspiro[2.5]octan-7-yl)nicotinamide] |
| 500 to 1000 nM | O=C(Nc1nnc(OCc2ccc(Cl)cc2)s1)c1cccnc1-c1ccc(=O)[nH]c1 [Example 79, N-(5-((4-chlorobenzyl)oxy)-1,3,4-thiadiazol-2-yl)-6′-oxo-1′,6′-dihydro-[2,3′-bipyridine]-3-carboxamide or its tautomer N-(5-((4-chlorobenzyl)oxy)-1,3,4-thiadiazol-2-yl)-6′-hydroxy-[2,3′-bipyridine]-3-carboxamide] |
| 500 to 1000 nM | O=C(Nc1nnc(OCc2ccc(Cl)cc2)s1)c1cccnc1-c1cc[nH]c(=O)c1 [Example 74, N-(5-((4-chlorobenzyl)oxy)-1,3,4-thiadiazol-2-yl)-2′-hydroxy-[2,4′-bipyridine]-3-carboxamide or its tautomer N-(5-((4-chlorobenzyl)oxy)-1,3,4-thiadiazol-2-yl)-2′-oxo-1′,2′-dihydro-[2,4′-bipyridine]-3-carboxamide] |
| ≤ 200 nM | O=C(Nc1nnc(OCc2ccc(Cl)cn2)s1)c1ccncc1-c1c(F)cccc1OC(F)F [Example 182, N-(5-((5-chloropyridin-2-yl)methoxy)-1,3,4-thiadiazol-2-yl)-3-(2-(difluoromethoxy)-6-fluorophenyl)isonicotinamide] |
| 1000 to 10000 nM | O=C(Nc1nnc(OCc2ccc(Cl)cn2)s1)c1cccnc1N1CCOCC1 [Example 3] |
| ≤ 200 nM | N#Cc1ccc(C(=O)Nc2nnc(OCc3ccc(Br)cc3)s2)c(N2CCOC3(CC3)C2)n1 [Example 85, N-(5-((4-bromobenzyl)oxy)-1,3,4-thiadiazol-2-yl)-6-cyano-2-(4-oxa-7-azaspiro[2.5]octan-7-yl)nicotinamide] |
| ≤ 200 nM | C[C@@H]1COC[C@@H](C)N1c1cnccc1C(=O)Nc1nnc(OCc2ccc(Cl)cc2)s1 [Example 144, N-(5-((4-chlorobenzyl)oxy)-1,3,4-thiadiazol-2-yl)-3-((3R,5R)-3,5-dimethylmorpholino)isonicotinamide] |
| ≤ 200 nM | O=C(Nc1nnc(OCc2ccc(Cl)cn2)s1)c1cnc(CO)cc1-c1ccccc1OC(F)F [Example 104, N-(5-((5-chloropyridin-2-yl)methoxy)-1,3,4-thiadiazol-2-yl)-4-(2-(difluoromethoxy)phenyl)-6-(hydroxymethyl)nicotinamide] |
